# Experimental data: patent US4294832A, “Tetrahydroisoquinoline compounds and a pharmaceutical composition thereof” (Tanabe Seiyaku Co., Ltd., priority 1979, dated 1981)
# Where a name gives a salt, the structure may show the parent alone.
# How the values were obtained:
# [1] = test system: spontaneously hypertensive rats (SHR); test: Hypotensive activity in SHR (systolic blood pressure, tail plethysmographic technique); type: in vivo, rat; settings: 50 mg/kg orally
# Procedure: Hypotensive activity in SHR:
# A test compound (dose: 50 mg/kg) suspended in an aqueous carboxymethylcellulose solution was administered orally to spontaneously hypertensive rats (SHR) fasted overnight. The systolic blood pressure of the rats was measured by the tail plethysmographic technique (The Journal of Laboratory and Clinical Medicine 78(1971), page 957). The hypotensive activity of the test compound was estimated from the decreased level of blood pressure.
# [2] = test system: mice; test: Oral toxicity in mice; type: in vivo, mouse; settings: 2 g/kg orally
# Procedure: Furthermore, when a test compound was administered orally to spontaneously hypertensive rats, 3(S)-2-[N-ethyl-N-(2-n-butoxycarbonylethyl)carbamoyl]-1,2,3,4-tetrahydroisoquinoline-3-carboxylic acid 1/2 calcium salt at a dose of 50 mg/kg decreased the blood pressure by 24 mm Hg. In addition, the toxicity of the compound (I) is considerably low. For example, when 3(S)-2-[N-ethyl-N-(2-n-butoxycarbonylethyl)carbamoyl]-1,2,3,4-tetrahydroisoquinoline-3-carboxylic acid 1/2 calcium salt was administered orally to mice at a dose of 2 g/kg, no mouse died within 7 days after said administration.
smiles,measurement,setting,value
"CCCCOC(=O)CCN(CC)C(=O)N1Cc2ccccc2C[C@H]1C(=O)O [3(S)-2-[N-ethyl-N-(2-n-butoxycarbonylethyl)carbamoyl]-1,2,3,4-tetrahydroisoquinoline-3-carboxylic acid 1/2 calcium salt]",Decrease in blood pressure (-Δ mm Hg),"[1]; SHR fasted overnight, systolic",24 mm Hg
same,Duration of action,"[1]; hypotensive action, SHR",> 6 h
same,mortality within 7 days after administration,[2],no mouse died
